US20180049965A1, “ORAL CARE METHODS AND COMPOSITIONS UTILIZING CHITOSAN-DERIVATIVE COMPOUNDS” (Synedgen Inc., priority 2009, published 2018)

How the values were obtained:
[1] = test system: Streptococcus mutans ATCC 35668 biofilms; experiment: Immediate dispersal of stationary S. mutans biofilms, crystal violet, 1 minute treatment; format: cell-based; settings: 1.2% chlorhexidine, room temperature
Method: FIG. 11 depicts the immediate dispersal of Streptococcus mutans ATCC 35668 2-day old stationary biofilms treated with 100 μg/mL chitosan-arginine (43 kDa, 25% functionalized, 88% DDA, 2.28 PDI), water, or 1.2% Chlorhexidine. The biofilms were rinsed, stained with crystal violet and treated for 1 minute and rinsed.
The S. mutans biofilms were grown in 12-well untreated tissue culture plates containing BHI media supplemented with 1% sucrose for approximately 3 days. The biofilms were rinsed with water three times and stained with crystal violet for 2 minutes then rinsed three times (FIG. 11, ‘Before’). Water, 100 μg/ml chitosan-arginine or 1.2% chlorhexidine were used to treat each biofilm for 1 minute at room temperature (FIG. 11, ‘During’).

[2] = test system: Streptococcus mutans (ATCC 35668); experiment: Synergy of chitosan-arginine with chlorhexidine, remaining CFU after 1 hour; format: cell-based
Method: Solutions of both agents were prepared at 4× their intended final concentration. Two concentrations for each agent are used for each assay and the drugs were combined in 4 ways: […] Controls of each drug alone as well as positive (S. mutans only) and negative (media only) controls were prepared. […] After incubation, the plates were centrifuged for 10 minutes at 4000 RPM on a microtiter plate rotor, before being resuspended, sonicated, diluted and plated on BHI for remaining CPU.

Compound: [H]/N=C(\N/C(=N/[H])NCCCCCCNC(=N)NC(=N)Nc1ccc(Cl)cc1)Nc1ccc(Cl)cc1 [Chlorhexidine]
- biofilm after 1 minute treatment and rinsing [1]: removed from the surface
- Log CFU reduction beyond most active agent ([2]; Chlorhexidine 0.00625% alone (C/A 0 μg/ml)): 1.9 Log CFU
- Log CFU reduction beyond most active agent ([2]; Chlorhexidine 0.0125% alone (C/A 0 μg/ml)): 1.8 Log CFU
